Key:
Ah receptor [1] = target: T1, Ah receptor (Mus musculus, UniProt P30561); assay: AhR ligand activity assay (luciferase reporter gene, H1L1.1C2 ligand reporting cells); format: cell-based
T1 construct: endogenous in cells; host or cells: H1L1.1C2 AhR ligand reporting cells
T1 sequence (P30561 10-848): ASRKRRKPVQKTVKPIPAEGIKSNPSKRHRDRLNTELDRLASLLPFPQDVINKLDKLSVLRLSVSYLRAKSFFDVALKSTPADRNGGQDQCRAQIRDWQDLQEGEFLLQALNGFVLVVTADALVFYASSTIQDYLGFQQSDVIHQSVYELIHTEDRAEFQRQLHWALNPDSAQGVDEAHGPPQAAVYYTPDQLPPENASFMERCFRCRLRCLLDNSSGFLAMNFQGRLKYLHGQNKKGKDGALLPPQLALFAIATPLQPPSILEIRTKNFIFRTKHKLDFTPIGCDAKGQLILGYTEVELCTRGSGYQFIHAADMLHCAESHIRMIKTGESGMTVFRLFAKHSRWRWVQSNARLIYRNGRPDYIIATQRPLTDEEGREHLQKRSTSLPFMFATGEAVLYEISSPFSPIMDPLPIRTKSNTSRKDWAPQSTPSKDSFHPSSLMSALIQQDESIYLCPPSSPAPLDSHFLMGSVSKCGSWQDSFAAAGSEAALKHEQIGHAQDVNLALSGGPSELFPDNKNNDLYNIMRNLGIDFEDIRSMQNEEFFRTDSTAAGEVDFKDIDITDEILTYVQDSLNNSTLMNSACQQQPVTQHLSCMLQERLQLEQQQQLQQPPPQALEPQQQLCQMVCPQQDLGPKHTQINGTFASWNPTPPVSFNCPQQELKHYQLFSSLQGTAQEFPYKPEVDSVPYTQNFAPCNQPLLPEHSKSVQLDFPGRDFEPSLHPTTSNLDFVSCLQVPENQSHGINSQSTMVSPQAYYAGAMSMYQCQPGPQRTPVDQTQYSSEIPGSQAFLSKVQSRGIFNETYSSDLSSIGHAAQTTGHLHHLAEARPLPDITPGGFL
Protocol: The ligand activity is determined most preferably by an activity assay described below. In brief, the ligand extracts are added to Ah receptor-containing ligand reporter cells. These cells are then incubated for 4 hours and the cells are lysed to release the formed luciferase. This enzyme typically is measured according to the kit sold by Promega (Madison, Wis., USA.). Luciferase activity is measured by light emission recorded by a luminometer. The luminometer readings are taken after a substrate solution is injected into a well.
The cell line H1L1.1C2 was maintained in a culture medium (DMEM+10% FBS) with G418 at a concentration of 400 μg/ml and incubated under an atmosphere of 37° C., 6% CO2, and 100% humidity. A 96 well sterile cell culture plate with about 30,000 cells per well in 200 μl of the culture medium without G418 was prepared and incubated for at least 12 hours before being dosed for ligand activity assay.
The solvents from the ligand activities were evaporated and the activities were reconstituted in DMSO and 1 μl of this solution was used to dose the ligand reporting cells in a well with 200 μl of culture medium. One row of the reporting cells in each assay plate was dosed with 1 μl of the DMSO solutions of a set of βNF standards to generate a standard dose response curve. The dosed cells were incubated for 6 hours under the same environment as they were maintained. The cells were washed twice with a 1×PBS (pH 6.9) after the incubation and the culture wells were scanned under an inverted microscope to detect any obvious cell number change due to dosing. The cells were lysed by adding 50 μl of a 1×cell lysis reagent (Promega, Madison, Wis., USA) and 10 μl of the lysate from each well were transferred into a corresponding well of a Microlite 2 plate (Dynex Technologies Inc., Chantilly, Va., USA) for luminometer reading. A MLX Microtiter Plate Luminometer (Dynex Technologies Inc.) was programmed to inject 50 μl of a luciferase substrate solution (Promega) into a well, read the light intensities in Relative Light Units (RLU's) generated by the luciferase reaction for 5 seconds after a one second delay following the injection, and take the average of the 5 second readings as a final RLU.
Dose response curves of RLU's vs. doses of βNF standards (ng in each assay well) from each plate were plotted and the RLU's generated by the samples were converted into βNF equivalent (BEQ) as ligand activity by consulting the βNF dose response curve generated from the same plate. Data were reported as ligand activity (in BEQ) vs. treatments or fractions from a purification procedure.

[2] = Solubility and stability characterisation of the ligand preparation; format: physicochemical
Protocol: The preferred ligand preparation described below can be characterized by its solubility. The ligand is extractable from tissue by 80% methanol/20% water. After the boiling and acid treatment, the ligand is extractable in chloroform.
The ligand preparation is unstable in base but stable in up to two normal acid for at least 24 hours. The preparation is stable to heating at 37° C. overnight (16 hours) and at 100° C. for 24 hours.

Ah receptor [3] = target: T1, Ah receptor; assay: Reduction with NaBH4, phases assayed for biological activity; format: cell-based; conditions: saturated NaBH4 in ethanol, overnight, room temperature; data not shown
Protocol: Specified quantity of the compound was pipetted into a glass via for reaction and the solvents were evaporated. A saturated solution (100 μl) of NaBH4 in ethanol (200 proof, Aaper Alcohol and Chemical Co. Shelbyville, Ky., U.S.A.) was added to each reaction tube. The mixture was incubated overnight at room temperature and stopped by adding 200 μl of water. The reactions were extracted with 200 μl of chloroform twice and the chloroform phases were pooled. The solvents from both aqueous and chloroform phases were evaporated and both phases were assayed for biological activities. The chloroform phase was analyzed with electron impact mass spectroscopy as was a blank treated identically but containing no isolate.

Ah receptor [4] = target: T1, Ah receptor; assay: Base treatment followed by ligand activity assay; format: cell-based; conditions: 0.1 N KOH, 37° C., overnight
Protocol: An aliquot of methanolic extracts of about 4 ng BEQ was transferred into a cleaned glass vial and the solvents were evaporated. A solution (200 ul) of 0.1 N KOH in water was added into the vial. The vials were incubated at 37° C. overnight. After the incubation, the tubes were cooled down and neutralized slowly with HCl. The treatment mixtures were extracted with 200 μl of chloroform. Chloroform and aqueous phases were separated and the solvents were evaporated. DMSO (10 μl) was added to each tube for activity assay. βNF and blank extracts were treated the same way as for the sample.

Ah receptor [5] = target: T1, Ah receptor; assay: Heat treatment followed by ligand activity assay; format: cell-based; conditions: 100° C. water bath, 30 minutes
Protocol: The methanolic extracts either in methanol or DMSO in a cleaned glass vials were heated in a 100° C. water bath for 30 minutes and the vials were cooled to room temperature. The extracts in the solvents were directly assayed as they were to determine the activities.

Ah receptor [6] = target: T1, Ah receptor; assay: Base hydrolysis and methylation, products assayed for biological activity; format: cell-based; conditions: same manipulations as for the ligand
Protocol: To 2 μl of methanol with 3 ng BEQ of the sample, 38 μl of methanol of 10 μl of a 0.5 mm KOH in water were added and mixed. The reaction was incubated at 37° C. for 2 hours and stopped by adding 10 μl of 0.5 mmolar HCl in water to bring pH to around 5.0. To the reaction mix, 30 μl of water, 10 μl of methanol, and 50 μl of chloroform were added and mixed. The chloroform phase was separated and kept after centrifugation of the mixture. The chloroform extraction was repeated and the two chloroform phases were pooled. The chloroform phase was split into two parts, one for biological assay and the other for methylation. The same manipulations were performed for 3 ng of βNF in 2 μl of methanol and 2 μl of methanol as controls.
The solvents were evaporated and the products were assayed side by side with the hydrolysis products without methylation.

For `COc1cc(-c2cc(=O)c3ccccc3o2)ccc1[N+](=O)[O-]` [3′-methoxy-4′-nitroflavone], the “antagonism of the reporter gene response to ITE” value (Ah receptor [1]; AhR antagonist, data not shown) was “block the reporter gene response to the compound in a dose dependent fashion”.
For `COC(=O)c1csc(C(=O)c2c[nH]c3ccccc23)n1` [ITE, 2-(1′-H-indole-3′-carbonyl)-thiazole-4-carboxylic acid methyl ester], the “extractability from tissue by 80% methanol/20% water” value [2] was “extractable”, the stability in base [2] was “unstable” and the “time stable in up to two normal acid” value [2] was “at least 24 hours”. For the same compound, the “stability to heating at 100° C.” value ([2]; 24 hours) was “stable”, the extractability in chloroform ([2]; after the boiling and acid treatment) was “extractable” and the “stability to heating at 37° C.” value ([2]; overnight (16 hours)) was “stable”. The “biological activity of synthetic compound compared with the isolate” value (Ah receptor [1]) was “the same biological activity”, the “reporter gene potency relative to βNF” value (Ah receptor [1]; dose response curves after 4 hours of incubation, FIG. 7B) was “about five” and the “biological activity after reduction with NaBH4” value (Ah receptor [3]) was “completely destroyed the biological activity”.
For `O=c1cc(-c2ccccc2)oc2ccc3ccccc3c12` [βNF, β-Naphthoflavone], the “response of ligand activity to base treatment” value (Ah receptor [4]) was “did not respond”, the “response of ligand activity to heat treatment” value (Ah receptor [5]) was “did not respond” and the “change in biological activity after hydrolysis and methylation manipulations” value (Ah receptor [6]) was “no change”. For the same compound, the “induction over vehicle control” value (Ah receptor [1]; 0.05 ng of βNF per assay well (200 μl medium), 96 well format) was “two to three” and the “amount generating a distinguishable signal” value (Ah receptor [1]; per assay well, 96 well format) was 0.01 ng.

Reference: patent publication US6916834B2, “Preparations and use of an Ah receptor ligand, 2-(1′H-indole-3′-carbonyl)-thiazole-4-carboxylic acid methyl ester” (Wisconsin Alumni Research Foundation, priority 2001, dated 2005)
